21 compounds from ChEMBL document CHEMBL3046556, “Microwave-assisted synthesis and antimicrobial screening of new imidazole derivatives bearing 4-thiazolidinone nucleus” (2013) can be followed below.

Experiment [1] relates to Staphylococcus aureus. Briefly: Antibacterial activity against Staphylococcus aureus MTCC 96 assessed as growth inhibition at 12.5 to 1000 ug/mL after 24 hr by NCCLS broth dilution method. The class given is functional, organism-based. (In general: Dilution methods test growth across graded concentrations, often in twofold steps.)
For a further experiment, the system named is Aspergillus niger. Briefly: Antifungal activity against Aspergillus niger MTCC 282 assessed as growth inhibition at 12.5 to 1000 ug/mL after 48 hr by broth dilution method. It counts as functional, organism-based.
Another experiment concerns Aspergillus clavatus. Briefly: Antifungal activity against Aspergillus clavatus MTCC 1323 assessed as growth inhibition at 12.5 to 1000 ug/mL after 48 hr by broth dilution method. It counts as functional, organism-based.
In another experiment the test system is Streptococcus pyogenes. Briefly: Antibacterial activity against Streptococcus pyogenes MTCC 442 assessed as growth inhibition at 12.5 to 1000 ug/mL after 24 hr by NCCLS broth dilution method. The class given is functional, organism-based.
For a further experiment, the system named is Pseudomonas aeruginosa. Briefly: Antibacterial activity against Pseudomonas aeruginosa MTCC 1688 assessed as growth inhibition at 12.5 to 1000 ug/mL after 24 hr by NCCLS broth dilution method. It counts as functional, organism-based.
Experiment [2] deals with Escherichia coli. Briefly: Antibacterial activity against Escherichia coli MTCC 443 assessed as growth inhibition at 12.5 to 1000 ug/mL after 24 hr by NCCLS broth dilution method. The class given is functional, organism-based.
The subject of another experiment is Candida albicans. Briefly: Antifungal activity against Candida albicans MTCC 227 assessed as growth inhibition at 12.5 to 1000 ug/mL after 48 hr by broth dilution method. The class given is functional, organism-based.
For experiment [3], the system named is Escherichia coli. Briefly: Antibacterial activity against Escherichia coli MTCC 443 assessed as growth inhibition after 24 hr by NCCLS broth dilution method. It counts as functional. To be noted: MTCC 443, 24 h.
The subject of experiment [4] is Staphylococcus aureus. Briefly: Antibacterial activity against Staphylococcus aureus MTCC 96 assessed as growth inhibition after 24 hr by NCCLS broth dilution method. It counts as functional. To be noted: MTCC 96, 24 h.

Values after ≈ are worked out from the molar mass of the structure shown. Active and inactive are the calls of the source.

As for `CC(=O)c1ccc(N2C(=O)/C(=C\c3cccc(O)c3)N=C2C)cc1`, the “growth inhibition (GI)” value with Staphylococcus aureus [1], with Aspergillus niger, with Aspergillus clavatus, with Streptococcus pyogenes, in the experiment with Pseudomonas aeruginosa and with Escherichia coli [2] was “inactive” throughout. For the same compound, in the experiment with Candida albicans, the “growth inhibition (GI)” value was “inactive”.

Consider `CC1=N/C(=C/c2ccccc2F)C(=O)N1c1ccc(/C(C)=N/NC(N)=S)cc1`, for which the “growth inhibition (GI)” value with Staphylococcus aureus [1], in the experiment on Streptococcus pyogenes, in the experiment on Pseudomonas aeruginosa and in the experiment on Escherichia coli [2] was “inactive” in each case. In addition, the “growth inhibition (GI)” value with Aspergillus niger, in the experiment on Aspergillus clavatus and in the experiment on Candida albicans was “Active” each time.

For `CC(=O)c1ccc(N2C(=O)/C(=C\c3ccc(Cl)cc3)N=C2C)cc1`, the “growth inhibition (GI)” value with Staphylococcus aureus [1], with Aspergillus niger, with Aspergillus clavatus, in the experiment on Streptococcus pyogenes, with Pseudomonas aeruginosa and in the experiment on Escherichia coli [2] was “inactive” each time. Also, the “growth inhibition (GI)” value with Candida albicans was “inactive”.

For `CC1=N/C(=C/c2ccccc2[N+](=O)[O-])C(=O)N1c1ccc(/C(C)=N/NC(N)=S)cc1`, the “growth inhibition (GI)” value with Staphylococcus aureus [1], in the experiment with Streptococcus pyogenes, in the experiment on Pseudomonas aeruginosa and in the experiment with Escherichia coli [2] was “inactive” each time. Further, the “growth inhibition (GI)” value with Aspergillus niger, with Aspergillus clavatus and in the experiment with Candida albicans was “Active” in each case.

Consider `CC(=O)c1ccc(N2C(=O)/C(=C\c3ccccc3F)N=C2C)cc1`, for which the “growth inhibition (GI)” value with Staphylococcus aureus [1], in the experiment with Aspergillus niger, with Aspergillus clavatus, in the experiment with Streptococcus pyogenes, in the experiment with Pseudomonas aeruginosa and in the experiment with Escherichia coli [2] was “inactive” in each case. The “growth inhibition (GI)” value in the experiment on Candida albicans was “inactive”.

For the compound `CC(=O)c1ccc(N2C(=O)/C(=C\c3ccccc3[N+](=O)[O-])N=C2C)cc1`, the “growth inhibition (GI)” value in the experiment with Staphylococcus aureus [1], in the experiment on Aspergillus niger, with Aspergillus clavatus, with Streptococcus pyogenes, with Pseudomonas aeruginosa and in the experiment with Escherichia coli [2] was “inactive” throughout. In addition, the “growth inhibition (GI)” value with Candida albicans was “inactive”.

`CC(=O)c1ccc(N2C(=O)/C(=C\c3ccc(F)cc3)N=C2C)cc1`: the “growth inhibition (GI)” value in the experiment with Staphylococcus aureus [1], in the experiment with Aspergillus niger, in the experiment on Aspergillus clavatus, with Streptococcus pyogenes, in the experiment with Pseudomonas aeruginosa and with Escherichia coli [2] was “inactive” throughout. For the same compound, in the experiment on Candida albicans, the “growth inhibition (GI)” value is “inactive”.

Regarding `CC1=N/C(=C/c2ccccc2Cl)C(=O)N1c1ccc(/C(C)=N/NC(N)=S)cc1`, the “growth inhibition (GI)” value with Staphylococcus aureus [1], in the experiment on Streptococcus pyogenes, in the experiment on Pseudomonas aeruginosa and with Escherichia coli [2] was “inactive” throughout. In addition, the “growth inhibition (GI)” value in the experiment with Aspergillus niger, with Aspergillus clavatus and in the experiment on Candida albicans was “Active” each time.

With `COc1ccccc1/C=C1/N=C(C)N(c2ccc(/C(C)=N/NC(N)=S)cc2)C1=O`, the “growth inhibition (GI)” value with Staphylococcus aureus [1], with Streptococcus pyogenes, with Pseudomonas aeruginosa and in the experiment with Escherichia coli [2] was “inactive” in each case. Besides, the “growth inhibition (GI)” value in the experiment on Aspergillus niger, in the experiment with Aspergillus clavatus and in the experiment on Candida albicans was “Active” in each case.

Take `CC1=N/C(=C/c2ccc([N+](=O)[O-])cc2)C(=O)N1c1ccc(/C(C)=N/NC(N)=S)cc1`: the “growth inhibition (GI)” value with Staphylococcus aureus [1], with Streptococcus pyogenes, in the experiment on Pseudomonas aeruginosa and in the experiment with Escherichia coli [2] was “inactive” throughout. Besides, the “growth inhibition (GI)” value with Aspergillus niger, in the experiment on Aspergillus clavatus and in the experiment on Candida albicans was “Active” in each case.

On to `CC(=O)c1ccc(N2C(=O)/C(=C\c3ccccc3Cl)N=C2C)cc1`, for which the “growth inhibition (GI)” value in the experiment with Staphylococcus aureus [1], in the experiment on Aspergillus niger, in the experiment on Aspergillus clavatus, in the experiment on Streptococcus pyogenes, with Pseudomonas aeruginosa and with Escherichia coli [2] was “inactive” each time. The “growth inhibition (GI)” value in the experiment on Candida albicans was “inactive”.

Regarding `CC(=O)c1ccc(N2C(=O)/C(=C\c3cccc(C)c3)N=C2C)cc1`, the “growth inhibition (GI)” value with Staphylococcus aureus [1], in the experiment with Aspergillus niger, in the experiment on Aspergillus clavatus, in the experiment with Streptococcus pyogenes, in the experiment with Pseudomonas aeruginosa and in the experiment with Escherichia coli [2] was “inactive” in each case. The “growth inhibition (GI)” value in the experiment with Candida albicans is “inactive”.

With `CC1=N/C(=C/c2ccc(Cl)cc2)C(=O)N1c1ccc(/C(C)=N/NC(N)=S)cc1`, the “growth inhibition (GI)” value in the experiment on Staphylococcus aureus [1], in the experiment with Streptococcus pyogenes, in the experiment on Pseudomonas aeruginosa and in the experiment with Escherichia coli [2] was “inactive” throughout. Also, the “growth inhibition (GI)” value in the experiment with Aspergillus niger, in the experiment on Aspergillus clavatus and in the experiment with Candida albicans was “Active” each time.

On to `CC1=N/C(=C/c2ccccc2C)C(=O)N1c1ccc(/C(C)=N/NC(N)=S)cc1`, for which the “growth inhibition (GI)” value in the experiment on Staphylococcus aureus [1], in the experiment on Streptococcus pyogenes, in the experiment with Pseudomonas aeruginosa and in the experiment with Escherichia coli [2] was “inactive” each time. For the same compound, the “growth inhibition (GI)” value in the experiment on Aspergillus niger, in the experiment with Aspergillus clavatus and in the experiment on Candida albicans was “Active” throughout.

For `CC(=O)c1ccc(N2C(=O)/C(=C\c3ccc([N+](=O)[O-])cc3)N=C2C)cc1`, the “growth inhibition (GI)” value with Staphylococcus aureus [1], with Aspergillus niger, in the experiment with Aspergillus clavatus, with Streptococcus pyogenes, in the experiment with Pseudomonas aeruginosa and in the experiment with Escherichia coli [2] was “inactive” each time. In addition, in the experiment with Candida albicans, the “growth inhibition (GI)” value was “inactive”.

For the compound `CC1=N/C(=C/c2ccccc2)C(=O)N1c1ccc(/C(C)=N/NC(N)=S)cc1`, the “growth inhibition (GI)” value in the experiment on Staphylococcus aureus [1], with Streptococcus pyogenes, in the experiment on Pseudomonas aeruginosa and in the experiment with Escherichia coli [2] was “inactive” throughout. Moreover, the “growth inhibition (GI)” value in the experiment on Aspergillus niger, in the experiment on Aspergillus clavatus and with Candida albicans was “Active” throughout.

In the case of `CC(=O)c1ccc(N2C(=O)/C(=C\c3ccccc3C)N=C2C)cc1`, the “growth inhibition (GI)” value with Staphylococcus aureus [1], in the experiment on Aspergillus niger, with Aspergillus clavatus, with Streptococcus pyogenes, with Pseudomonas aeruginosa and in the experiment on Escherichia coli [2] was “inactive” each time. Moreover, the “growth inhibition (GI)” value with Candida albicans is “inactive”.

For orientation: MIC means the smallest concentration in the dilution series that meets the test's criterion for growth inhibition. For the compound `CC1=N/C(=C/c2cccc(O)c2)C(=O)N1c1ccc(/C(C)=N/NC(N)=S)cc1`, the MIC with Escherichia coli [3] came out at 1000 µg/mL (≈ 2540 µM); in the experiment on Staphylococcus aureus [4] it was 500 µg/mL (≈ 1270 µM). Moreover, the “growth inhibition (GI)” value with Aspergillus niger, with Aspergillus clavatus and in the experiment with Candida albicans was “Active” in each case. Moreover, the “growth inhibition (GI)” value with Streptococcus pyogenes and with Pseudomonas aeruginosa was “inactive” each time.

`CC1=N/C(=C/c2ccc(F)cc2)C(=O)N1c1ccc(/C(C)=N/NC(N)=S)cc1`: the “growth inhibition (GI)” value in the experiment on Staphylococcus aureus [1], in the experiment on Streptococcus pyogenes, with Pseudomonas aeruginosa and in the experiment on Escherichia coli [2] was “inactive” throughout. The “growth inhibition (GI)” value with Aspergillus niger, in the experiment with Aspergillus clavatus and in the experiment with Candida albicans was “Active” in each case.

As to `COc1ccc(/C=C2/N=C(C)N(c3ccc(C(C)=O)cc3)C2=O)cc1`, the MIC in the experiment with Escherichia coli [3] and in the experiment on Staphylococcus aureus [4] was 1000 µg/mL (≈ 2990 µM) throughout. Also, the “growth inhibition (GI)” value in the experiment on Aspergillus niger, in the experiment with Aspergillus clavatus, in the experiment on Streptococcus pyogenes, in the experiment on Pseudomonas aeruginosa and in the experiment with Candida albicans was “inactive” each time.

On to `CC(=O)c1ccc(N2C(=O)/C(=C\c3ccccc3)N=C2C)cc1`, for which the “growth inhibition (GI)” value with Staphylococcus aureus [1], in the experiment on Aspergillus niger, with Aspergillus clavatus, in the experiment on Streptococcus pyogenes, in the experiment with Pseudomonas aeruginosa and with Escherichia coli [2] was “inactive” throughout. Also, the “growth inhibition (GI)” value with Candida albicans was “inactive”.
